In patent US20050208496A1, “Methods of testing for bronchial asthma or chronic obstructive pulmonary disease” (Genox Research, Inc., priority 2002, published 2005):

Tested on: respiratory epithelial cells

## IL-13: human IL-13 (Peprotech, Inc.) added to the medium at 50 ng/mL to stimulate respiratory epithelial cells
Lot 1, Day 7, AI method
  TGM2 (38404_at) expression fold change upon IL-13 stimulation: 2.8 fold
  TSPAN-3 (38612_at) expression, fold change upon IL-13 stimulation: 2.7 fold
  TXNRD1 (39425_at) expression fold change upon IL-13 stimulation: 2.5 fold
  UBE2L6 (40505_at) expression fold change upon IL-13 stimulation: 5.1 fold
  UFD1L (811_at) expression, fold change upon IL-13 stimulation: 5.1 fold
  W06879 (57696_at) expression fold change: 2.1 fold
  ZNF263 (33288_i_at) expression fold change: 2.6 fold
  diubiquitin (39959_at) expression, fold change upon IL-13 stimulation: 4.3 fold
Lot 1, Day 7, IMM
  AA053401 (56234_r_at) expression change: −5.7
  AA059458 (65626_at) expression change: −3.1
  AA456099 (59567_at) expression change: −2.3
  AF052107 38262_at expression change: −4.5
  AI050855 (64285_at) expression change: −3.7
  AI432375 (49819_at) expression change: −6.3
  AI770116 (70124_at) expression change: −2.1
  AI798733 (64163_at) expression change: −2.3
  AI829641 (84270_at) expression change: 11.7
  AI948584 48086_at expression change: −6.2
  AQP5 32909_at expression change: −2.5
  ARHGEF4 36524_at expression change: −2.2
  BARX2 35425_at expression change: −2.7
  CBLB 514_at expression change: −2.4
  CBLB 35632_at expression change: −2
  CRABP-II 1057_at expression change: −2.7
  DKFZp434K1210 44682_at expression change: −2.1
  DSC3 (79615_at) expression change: −4
  DSC3a, b 47119_at expression change: −3.4
  DSC3a, b 79615_at expression change: −4
  EIF4EBP1 (54152_at) expression change: −7.3
  FLJ10718 52072_at expression change: −8
  FLJ20373 54030_at expression change: −2.1
  FLJ23516 47534_at expression change: −5.4
  GJA1 32531_at expression change: −5.5
  HEY1 44783_s_at expression change: −3.4
  HIN-1 (46200_at) expression change: −4
  ID1 36619_r_at expression change: −3.9
  IL20RA 42969_at expression change: −2.9
  IVL 36355_at expression change: −4.5
  K1IAA1102 (64345_s_at) expression change: −5.6
  KCNMA1 (53796_at) expression change: −3
  KIAA0878 (48793_at) expression change: −2.4
  KLF7 34216_at expression change: −6.3
  KLF7 (42769_at) expression change: −3.7
  KRT6B (62998_at) expression change: −2.5
  KRT15 37582_at expression change: −2
  LOC51297 (49616_at) expression change: −3.9
  LOC51297 (55440_at) expression change: −3.7
  LOC51297 (55442_g_at) expression change: −12.8
  LOC129642 (42065_at) expression change: −4.3
  LOC129642 (58288_at) expression change: −3.9
  MGC14128 55924_at expression change: −2.7
  MGC14128 (51669_r_at) expression change: −2.1
  MGC16207 (65876_at) expression change: −2.3
  N71183 52473_at expression change: −2.1
  PR01489 57777_at expression change: −10.9
  RAC2 32737_at expression change: −3.2
  SEMA4B (46709_at) expression change: −2.2
  SERPINA3 (75248_at) expression change: −16.3
  SPRR1B 37160_at expression change: −2.4
  T52027 (63150_at) expression change: 2.5
  TCF8 33439_at expression change: −2.4
  TGFBI (68339_at) expression change: −3.2
  TNNT1 36113_s_at expression change: −4.9
  TNRC3 41246_at expression change: −2.4
  TPM1 36790_at expression change: −5.5
  TPM1 36791_g_at expression change: −7.5
  TPM1 36792_at expression change: −5.7
  UGB 39220_at expression change: −8.2
  VIM 34091_s_at expression change: −6.6
  W55956 46700_at expression change: −2.4
  W72331 49486 at expression change: −4.8
Lot 1, Day 7, IMM method
  ADAM8 (40712_at) expression, fold change upon IL-13 stimulation: 2.8 fold
  ADAM28 (35479_at) expression, fold change upon IL-13 stimulation: 6.4 fold
  AI659927 (54033_at) expression fold change: 11 fold
  AI718385 (53061_at) expression fold change: 3.2 fold
  AI809925 (53010_at) expression fold change: 2.8 fold
  AI989346 (52327_s_at) expression fold change: 2.1 fold
  AKAP2 (35985_at) expression, fold change upon IL-13 stimulation: 2.2 fold
  ALOX15 (34636_at) expression, fold change upon IL-13 stimulation: 118.8 fold
  AW019985 (48826_s_at) expression fold change: 10.8 fold
  BRCA1 (626_s_at) expression fold change: 2.4 fold
  BST2 (39061_at) expression, fold change upon IL-13 stimulation: 5.4 fold
  C21orf11 (58957_at) expression fold change: 6 fold
  CCND3 (1794_at) expression fold change upon IL-13 stimulation: 2.3 fold
  CDH6 (1620_at) expression fold change upon IL-13 stimulation: 4.2 fold
  CDH6 (57421_at) expression fold change: 4.5 fold
  CDH26 (46916_at) expression fold change: 9.3 fold
  CH25H (32363_at) expression, fold change upon IL-13 stimulation: 11.4 fold
  CLDN4 (35276_at) expression, fold change upon IL-13 stimulation: 2.1 fold
  CLDN5 (38995_at) expression, fold change upon IL-13 stimulation: 3.9 fold
  CTSC (133_at) expression, fold change upon IL-13 stimulation: 5.6 fold
  CXCL16 (44095_at) expression fold change: 2.6 fold
  DD96 (31610_at) expression, fold change upon IL-13 stimulation: 9.5 fold
  DKFZP564O0823 (41402_at) expression, fold change upon IL-13 stimulation: 9.6 fold
  DKFZP566J091 (57197_at) expression fold change: 4.2 fold
  DKFZp564N1116 (37784_at) expression, fold change upon IL-13 stimulation: 6 fold
  DPP4 (34823_at) expression fold change upon IL-13 stimulation: 3.9 fold
  DPYD (38220_at) expression fold change upon IL-13 stimulation: 6.9 fold
  EMILIN-2 (51628_at) expression fold change: 5 fold
  FETUB (32620_at) expression fold change: 7.4 fold
  FETUB (33101_g_at) expression fold change: 7.7 fold
  FLJ10261 (43366_at) expression fold change: 8.4 fold
  FLJ22693 (53777_at) expression fold change: 2.2 fold
  GADD45G (39154_at) expression fold change upon IL-13 stimulation: 3.1 fold
  HAS3 (54604_at) expression fold change: 2.2 fold
  HLA-F (37420_i_at) expression, fold change upon IL-13 stimulation: 2.4 fold
